Test results: patent US11897880B2, “7,8-dihydrobenzo[e]pyrido[3,4-c]azocine-2,5(3H,6H)-dione derivatives useful as a factor XIa inhibitors” (Janssen Pharmaceutica NV, priority 2021, dated 2024)
Where two headings read alike, the source gives them in different places. Peptide text beside a SMILES is read from it. * marks the point of attachment. 5FAM = O=C1OC2(c3ccc(O)cc3Oc3cc(O)ccc32)c2ccc(C(=O)*)cc21; AMC = Cc1cc(=O)oc2cc(N*)ccc12; Cbz = O=C(OCc1ccccc1)*

Assays:
Type in all cases: biochemical
Factor XIa [1] = molecular target: T1, Factor XIa (Homo sapiens, UniProt P03951); assay: Kinetic parameters of the peptide substrate 5Fam-KLTRAETV-K5Tamra with FXIa (substrate inhibition model)
T1 sequence (P03951 388-625 limits assumed): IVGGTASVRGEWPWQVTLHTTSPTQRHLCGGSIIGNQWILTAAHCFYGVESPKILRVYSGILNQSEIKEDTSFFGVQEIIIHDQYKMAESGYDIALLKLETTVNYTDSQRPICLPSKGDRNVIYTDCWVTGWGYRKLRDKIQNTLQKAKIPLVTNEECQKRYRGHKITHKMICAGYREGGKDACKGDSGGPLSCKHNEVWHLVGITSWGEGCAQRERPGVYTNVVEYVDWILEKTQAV
T1 sequence (P03951 19-387 partner limits assumed): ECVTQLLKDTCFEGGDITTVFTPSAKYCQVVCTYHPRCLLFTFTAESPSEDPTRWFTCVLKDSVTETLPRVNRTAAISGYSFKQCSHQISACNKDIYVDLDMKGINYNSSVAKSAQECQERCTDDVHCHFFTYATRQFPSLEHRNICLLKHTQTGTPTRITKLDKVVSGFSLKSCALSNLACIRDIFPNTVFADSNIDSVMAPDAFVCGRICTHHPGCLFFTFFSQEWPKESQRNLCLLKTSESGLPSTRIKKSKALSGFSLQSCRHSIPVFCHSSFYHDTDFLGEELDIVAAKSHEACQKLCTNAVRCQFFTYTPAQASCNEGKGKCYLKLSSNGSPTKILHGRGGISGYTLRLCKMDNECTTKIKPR
From the text: A fluorescence intensity (FLINT) based assay was used to monitor inhibition of Factor XIa. The peptide substrate, 5Fam-KLTRAETV-K5Tamra (purchased from New England Peptide) was chosen based on the FXI sequence. Conversion of zymogen FXI to its activated form, FXIa, occurs by proteolytic cleavage by […] at two sites, Arg146 and Arg180. The custom peptide used in this assay was based on the Arg146 cleavage site of FXI. The peptide substrate was designed with a fluorophore-quencher pair, where the fluorescence is quenched until FXIa cleaves the 8-mer peptide after the Arg residue.

human plasma kallikrein [2] = molecular target: T2, human plasma kallikrein (Homo sapiens, UniProt P03952); assay: Kinetic parameters of the substrate Z-Gly-Pro-Arg-AMC with kallikrein (Michaelis-Menten fit)
T2 sequence (P03952 391-638 limits assumed): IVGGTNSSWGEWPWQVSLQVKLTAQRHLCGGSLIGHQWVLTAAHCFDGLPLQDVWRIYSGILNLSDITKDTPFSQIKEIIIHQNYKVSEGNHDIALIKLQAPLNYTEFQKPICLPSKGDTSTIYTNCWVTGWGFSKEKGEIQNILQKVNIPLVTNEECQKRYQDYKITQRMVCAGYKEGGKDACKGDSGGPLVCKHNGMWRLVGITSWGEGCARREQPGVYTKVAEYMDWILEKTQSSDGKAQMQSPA
T2 sequence (P03952 20-390 partner limits assumed): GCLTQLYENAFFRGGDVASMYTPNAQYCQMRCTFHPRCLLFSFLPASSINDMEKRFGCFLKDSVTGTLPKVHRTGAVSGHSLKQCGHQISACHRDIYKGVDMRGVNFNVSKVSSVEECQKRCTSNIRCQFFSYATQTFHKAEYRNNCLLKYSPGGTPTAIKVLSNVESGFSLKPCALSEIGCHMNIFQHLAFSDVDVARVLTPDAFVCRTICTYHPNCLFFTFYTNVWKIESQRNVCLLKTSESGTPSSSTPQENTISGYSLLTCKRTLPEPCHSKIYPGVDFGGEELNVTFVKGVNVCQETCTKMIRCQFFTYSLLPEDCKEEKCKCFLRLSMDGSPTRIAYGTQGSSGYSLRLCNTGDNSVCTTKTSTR
From the text: A fluorescence intensity (FLINT) based assay was used to monitor inhibition of human plasma kallikrein. The peptide substrate, Z-Gly-Pro-Arg-AMC (Purchased from Bachem; Catalog #1-1150) was chosen based on its relatively low KM for kallikrein which enables running the assay at lower substrate concentrations to control background fluorescence.

Factor XIa [3] = molecular target: T1, Factor XIa; assay: Factor XIa inhibition assay utilizing a fluorophore-quencher pair peptide substrate (FLINT); details: for IC50: read-out: FXIa IC50; for Ki: read-out: FXIa Ki
Outline: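 Enzyme preincubated 30 min at room temperature with compound (11-point 3-fold dilution, top 100 nM, 2% DMSO), then 15 μM 5Fam-KLTRAETV-K5Tamra substrate added. Buffer: 50 mM Tris pH 7.5, 100 mM NaCl, 5 mM CaCl2, 0.1 mg/mL BSA, 0.03% CHAPS. Fluorescence (485/520 nm) read kinetically over 30 min; IC50 from 4-parameter logistic fit.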

human plasma kallikrein [4] = molecular target: T2, human plasma kallikrein; assay: Kallikrein inhibition assay utilizing a quenched AMC peptide substrate (FLINT); details: 30 min preincubation, 50 μM Z-Gly-Pro-Arg-AMC, 2 nM kallikrein
Outline: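 Human plasma kallikrein (2 nM final) was preincubated 30 min at room temperature with compound (11-point 3-fold dilution, top 1 μM, 2% DMSO) in pH 7.5 Tris buffer with CaCl2, BSA and CHAPS. Z-Gly-Pro-Arg-AMC (50 μM final) fluorescence was read at 340/440 nm every 5 min for 30 min. IC50 came from a 4-parameter logistic fit.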

[5] = 30 min preincubation, 5Fam-KLTRAETV-K5Tamra substrate 15 μM final, kinetic reads
[6] = cells that print μM themselves in the nM column
[7] = cells that print μM themselves in the nM column, same assay conditions

Compound	IC50 (Factor XIa [3]; [5]) [µM]	Ki (Factor XIa [3]) [µM]	IC50 (human plasma kallikrein [4]) [µM]	Ki (Factor XIa [3]; [6]) [µM]	IC50 (Factor XIa [3]; [7]) [µM]	further results
5Fam-KLTRAETV-K5Tamra (5FAM-KLTRAETV-{K(5-TAMRA)}) [fluorophore-quencher pair peptide substrate based on the Arg146 cleavage site of FXI, purchased from New England Peptide]	–	–	–	–	–	Ki (Factor XIa [1]; substrate inhibition constant): 61.6 µM; Km (Factor XIa [1]; substrate with FXIa): 12.4 µM; kcat (Factor XIa [1]; substrate with FXIa): 0.86 s⁻¹
Cc1cc(=O)oc2cc(NC(=O)[C@H](CCCNC(=N)N)NC(=O)[C@@H]3CCCN3C(=O)CNC(=O)OCc3ccccc3)ccc12 [Z-Gly-Pro-Arg-AMC] (Cbz-Gly-Pro-Arg-{AMC})	–	–	–	–	–	kcat (human plasma kallikrein [2]): 0.76 s⁻¹
CN1C(=O)c2c(cc(=O)n3c2CC[C@H]3c2ncc(-c3ccc(N)nc3F)[nH]2)-c2c(ccc(Cl)c2F)CC12CC2 (stereo in doubt) [Compound 41, (S*)-12-(5-(6-amino-2-fluoropyridin-3-yl)-1H-imidazol-2-yl)-7-chloro-8-fluoro-2-methyl-13,14-dihydro-2H-spiro[benzo[5,6]azocino[4,3-g]indolizine-3,1′-cyclopropane]-1,10(4H,12H)-dione]	0.0086	0.0043	> 10	–	–	–
Cc1nc2cc(-c3cnc([C@@H]4CCc5c6c(cc(=O)n54)-c4c(ccc(Cl)c4F)CC4(CC4)NC6=O)[nH]3)ccc2s1 (stereo in doubt) [Compound 4, (S*)-7-chloro-8-fluoro-12-(5-(2-methylbenzo[d]thiazol-5-yl)-1H-imidazol-2-yl)-13,14-dihydro-2H-spiro[benzo[5,6]azocino[4,3-g]indolizine-3,1′-cyclopropane]-1,10(4H,12H)-dione]	–	–	> 10	1.15	2.29	–
Cn1ncc(-c2cnc(C(CC3CC3)n3cc4c(cc3=O)-c3c(ccc(Cl)c3F)CC3(CC3)NC4=O)[nH]2)cc1=O (single isomer, unassigned) [Compound 59, (S*)-11-chloro-3-(2-cyclopropyl-1-(5-(1-methyl-6-oxo-1,6-dihydropyridazin-4-yl)-1H-imidazol-2-yl)ethyl)-12-fluoro-3H-spiro[benzo[e]pyrido[3,4-c]azocine-7,1′-cyclopropane]-2,5(6H,8H)-dione]	–	–	> 10	2.19	4.39	–
O=C1NC2(CC2)Cc2ccc(Cl)c(F)c2-c2cc(=O)n3c(c21)CC[C@@H]3c1ncc(-c2ccc3scnc3c2)[nH]1 (stereo in doubt) [Compound 26, (R*)-12-(5-(benzo[d]thiazol-5-yl)-1H-imidazol-2-yl)-7-chloro-8-fluoro-13,14-dihydro-2H-spiro[benzo[5,6]azocino[4,3-g]indolizine-3,1′-cyclopropane]-1,10(4H,12H)-dione]	0.0005	0.0003	0.07	–	–	–
CC1(C)Cc2ccc(Cl)c(F)c2-c2cc(=O)n3c(c2C(=O)N1)CC[C@@H]3c1ncc(-c2ccc(N)nc2F)[nH]1 (single isomer, unassigned) [Compound 28, (R*)-12-(5-(6-amino-2-fluoropyridin-3-yl)-1H-imidazol-2-yl)-7-chloro-8-fluoro-3,3-dimethyl-3,4,13,14-tetrahydrobenzo[5,6]azocino[4,3-g]indolizine-1,10(2H,12H)-dione]	~0.783	~0.392	> 10	–	–	–
CC1(C)Cc2ccc(Cl)c(F)c2-c2cc(=O)n3c(c2C(=O)N1)CC[C@H]3c1ncc(-c2ccc(N)nc2F)[nH]1 (single isomer, unassigned) [Compound 29, (S*)-12-(5-(6-amino-2-fluoropyridin-3-yl)-1H-imidazol-2-yl)-7-chloro-8-fluoro-3,3-dimethyl-3,4,13,14-tetrahydrobenzo[5,6]azocino[4,3-g]indolizine-1,10(2H,12H)-dione]	0.0008	0.0004	0.35	–	–	–
CN1C(=O)c2c(cc(=O)n3c2CC[C@@H]3c2ncc(-c3ccc(N)nc3F)[nH]2)-c2c(ccc(Cl)c2F)CC12CC2 (stereo in doubt) [Compound 40, (R*)-12-(5-(6-amino-2-fluoropyridin-3-yl)-1H-imidazol-2-yl)-7-chloro-8-fluoro-2-methyl-13,14-dihydro-2H-spiro[benzo[5,6]azocino[4,3-g]indolizine-3,1′-cyclopropane]-1,10(4H,12H)-dione]	–	–	> 10	> 5	> 10	–
Cn1cncc1-c1cnc([C@H]2CCc3c4c(cc(=O)n32)-c2c(ccc(Cl)c2F)CC2(CC2)NC4=O)[nH]1 (stereo in doubt) [Compound 51, (R*)-7-chloro-8-fluoro-12-(3′-methyl-3H,3H′-[4,4′-biimidazol]-2-yl)-13,14-dihydro-2H-spiro[benzo[5,6]azocino[4,3-g]indolizine-3,1′-cyclopropane]-1,10(4H,12H)-dione]	–	–	> 10	> 5	> 10	–
